Measurements reported in US20070212339A1, “Use Of At Least One Effector Of Glutathione Metabolism Together With Alpha-Lipoic Acid For The Treatment Of Chronically Obstructive Lung Diseases” (ESPARMA GMBH, priority 2003, published 2007).

Key:
[1] = test system: primary alveolar macrophages of COPD patients; assay: Phagocytosis rate of primary alveolar macrophages of COPD patients (cytofluorimetric test with opsonized fluorochrome-marked bacteria); format: cell-based, human; settings: for Phagoburst (mfi) [%]: RPMI1640; for phagocytosis rate: monosubstances, by comparison with the untreated control
Method: In a similar procedure to the one described in Example 3, alveolar macrophages were isolated and cultivated ex vivo. The phagocytosis efficiency was determined by a cytofluorimetric test at the single-cell level. The macrophages were co-cultivated with opsonized and fluorochrome-marked bacteria. The amount of bacteria absorbed in a defined period of time was assessed quantitatively via the fluorescence intensity in the macrophages and counted as the measurement for their capacity for phagocytosis. The influence of the combinations used according to the invention on the capacity of the […] macrophages for phagocytosis after a treatment period of up to 96 hours is shown in Table 7.

[2] = test system: alveolar macrophage cell line CRL 21-92 (NR8383); assay: Membrane-bound thiol expression (CMTMR, flow cytofluorimetry) of artificially thiol-depleted alveolar macrophage cell line; format: cell-based; settings: αLA 10.0 μg/ml alone, TDM
Method: (§1) The established normal alveolar macrophage cell line CRL 21-92 (NR8383 [AgC11x3A; NR8383.1]) was used. The cells were taken up in special cell culture media and incubated in a gassing incubator at 37° C., a relative air humidity of 98% and a relative air-CO2 content of 5%. In order to check the influence of the combinations used according to the invention on the thiol status of thiol-deficient alveolar macrophages, these were artificially thiol-depleted. This came about by cultivation in thiol-deficient media (TDM) according to tested methods [Free Radic Biol Med 2000; 29:1160-1165]. Comparative cultures using complete media (RPMT 1640) were used for defining the best possible normal value under culture conditions. The expression of membrane-bound thiol groups was also determined by means of flow cytofluorimetry. Chloromethyl tetramethyl rhodamine (CMTMR) was used as the thiol conjugate under conditions of a blocked membrane potential and an inhibited diffusion capacity of the cells, [Exp Hematol 1997; 25(7): 601-607]. The fluorescence intensity of the bound fluorochrome molecules on the cell membrane is here again proportional to the quantity of thiol groups on the cell surface. Immortalised alveolar macrophages were artificially thiol-depleted in the above-described test assembly. The influence of the substances used according to the invention was checked over a period of 96 hours by measuring the intracellular thiol content and the membrane expression of thiols. Immortalised alveolar macrophages were artificially thiol-depleted in the test assembly described in Example 1. The influence of the substances used according to the invention was checked over a period of 96 hours by measuring the intracellular thiol content and the membrane expression of thiols.

[3] = test system: primary alveolar macrophages of COPD patients; assay: Cellular thiol status (CMFDA) of primary alveolar macrophages of COPD patients; format: cell-based, human; settings: for Thiols, intracellular (CMFDA)[%]: RPMI1640
Method: The intercellular thiol content at the individual cell level was determined using 5-chloromethylfluorescein diacetate (CMFDA) in flow cytofluorimetry [Cytometry 1994; 15:349-358, Cytometry 1997; 29:76-82]. CMFDA which is primarily non-fluorogenic is here passively absorbed by the cell. Via the chloromethyl residue there is binding to cytoplasmatic thiol groups. After the acetate residues have been split off by unspecific cellular esterases, this complex which is now cell membrane-impermeable becomes fluorogenic at an excitation wavelength of λex=490 nm with an emission wavelength of λem=520 nm. The mean fluorescence intensity of the sample (10,000 cells) is directly proportional to the concentration of the intracellular thiol groups. Alveolar macrophages were isolated from the bronchoalveolar lavage fluid of COPD patients, taken up in cell culture medium and incubated in a gassing incubator at 37° C., a relative air humidity of 98% and a relative air-CO2 content of 7.5%. In order to check the influence of the combinations used according to the invention on the thiol status of the […] macrophages, in each case one fraction was treated with α-lipoic acid, the effector of glutathione metabolism ambroxol or with the combination of α-lipoic acid/ambroxol, whilst another fraction was used in each case as an untreated control. Untreated alveolar macrophages from healthy, non-COPD patients served as the normal comparison. The cellular thiol status was determined by means of the measuring method described under 1. The effect of the combination of α-lipoic acid and ambroxol in time kinetics over 96 hours in relation to healthy cells is shown in Table 5. In a test assembly identical to that of Example 3, alveolar macrophages from COPD patients were in each case treated with α-lipoic acid, the effector silibinin or with the combination of α-lipoic acid/silibinin, whilst another fraction was again used in each case as an untreated control. Untreated alveolar macrophages from healthy, non-COPD patients served here, too, as the normal comparison. The cellular thiol status was determined by means of the measuring method described under 1. The effect of the combination of α-lipoic acid and silibinin in time kinetics over 96 hours in relation to healthy cells is shown in Table 6.

[4] = test system: alveolar macrophage cell line CRL 21-92 (NR8383); assay: Intracellular thiol content (CMFDA, flow cytofluorimetry) of artificially thiol-depleted alveolar macrophage cell line; format: cell-based; settings: αLA 10.0 μg/ml alone, TDM
Method: as §1, with “conditions. The intercellular thiol content at the individual cell level was determined using 5-chloromethylfluorescein diacetate (CMFDA) in flow cytofluorimetry [Cytometry 1994; 15:349-358, Cytometry 1997; 29:76-82]. CMFDA which is primarily non-fluorogenic is here passively absorbed by the cell. Via the chloromethyl residue there is binding to cytoplasmatic thiol groups. After the acetate residues have been split off by unspecific cellular esterases, this complex which is now cell membrane-impermeable becomes fluorogenic at an excitation wavelength of λex=490 nm with an emission wavelength of λem=520 nm. The mean fluorescence intensity of the sample (10,000 cells) is directly proportional to the concentration of the intracellular thiol groups.” for “conditions.”

O=C(O)CCCCC1CCSS1 (stereo not drawn) [αLA, α-lipoic acid]
Phagoburst (mfi) [%] ([1]; 24 h, αLA 10.0 μg/ml alone): 59.0 ± 11.7% | Phagoburst (mfi) [%] ([1]; 48 h, αLA 10.0 μg/ml alone): 60.2 ± 12.4% | Phagoburst (mfi) [%] ([1]; 72 h, αLA 10.0 μg/ml alone): 50.7 ± 9.0% | Phagoburst (mfi) [%] ([1]; 96 h, αLA 10.0 μg/ml alone): 64.9 ± 14.3% | phagocytosis rate [1]: had not altered | Thiols, in membrane (CMTMR)[%] ([2]; Table 2, 24 h): 91.1 ± 66.3% | Thiols, in membrane (CMTMR)[%] ([2]; Table 2, 48 h): 165.5 ± 36.3% | Thiols, in membrane (CMTMR)[%] ([2]; Table 2, 72 h): 82.3 ± 42.1% | Thiols, in membrane (CMTMR)[%] ([2]; Table 2, 96 h): 118.9 ± 76.6% | Thiols, in membrane (CMTMR)[%] ([2]; Table 4, 24 h): 108.8 ± 38.2% | Thiols, in membrane (CMTMR)[%] ([2]; Table 4, 48 h): 126.2 ± 68.6% | Thiols, in membrane (CMTMR)[%] ([2]; Table 4, 72 h): 90.7 ± 28.1% | Thiols, in membrane (CMTMR)[%] ([2]; Table 4, 96 h): 107.3 ± 57.4% | cellular thiol expression ([3]; Example 3, monosubstances): no effect | cellular thiol expression ([3]; Example 4, monosubstances): no modulation | Thiols, intracellular (CMFDA)[%] ([3]; Table 5, 24 h, αLA 10.0 μg/ml alone): 60.3 ± 21.0% | Thiols, intracellular (CMFDA)[%] ([3]; Table 5, 48 h, αLA 10.0 μg/ml alone): 58.0 ± 17.0% | Thiols, intracellular (CMFDA)[%] ([3]; Table 5, 72 h, αLA 10.0 μg/ml alone): 46.2 ± 19.8% | Thiols, intracellular (CMFDA)[%] ([3]; Table 5, 96 h, αLA 10.0 μg/ml alone): 62.4 ± 6.3% | Thiols, intracellular (CMFDA)[%] ([3]; Table 6, 24 h, αLA 10.0 μg/ml alone): 60.3 ± 21.0% | Thiols, intracellular (CMFDA)[%] ([3]; Table 6, 48 h, αLA 10.0 μg/ml alone): 58.0 ± 68.6% | Thiols, intracellular (CMFDA)[%] ([3]; Table 6, 72 h, αLA 10.0 μg/ml alone): 46.2 ± 19.8% | Thiols, intracellular (CMFDA)[%] ([3]; Table 6, 96 h, αLA 10.0 μg/ml alone): 62.4 ± 6.3% | Thiols, intracellular (CMFDA)[%] ([4]; Table 1, 24 h): 70.2 ± 8.4% | Thiols, intracellular (CMFDA)[%] ([4]; Table 1, 48 h): 58.9 ± 10.4% | Thiols, intracellular (CMFDA)[%] ([4]; Table 1, 72 h): 78.1 ± 30.0% | Thiols, intracellular (CMFDA)[%] ([4]; Table 1, 96 h): 72.5 ± 19.1% | Thiols, intracellular (CMFDA)[%] ([4]; Table 3, 24 h): 69.2 ± 28.2% | Thiols, intracellular (CMFDA)[%] ([4]; Table 3, 48 h): 91.1 ± 16.6% | Thiols, intracellular (CMFDA)[%] ([4]; Table 3, 72 h): 88.6 ± 26.2% | Thiols, intracellular (CMFDA)[%] ([4]; Table 3, 96 h): 114.8 ± 33.2%

Nc1c(Br)cc(Br)cc1CN[C@H]1CC[C@H](O)CC1 [Ambroxol, ambroxol]
Phagoburst (mfi) [%] ([1]; 24 h, Ambroxol 10 μM alone): 53.3 ± 10.9% | Phagoburst (mfi) [%] ([1]; 48 h, Ambroxol 10 μM alone): 59.2 ± 12.4% | Phagoburst (mfi) [%] ([1]; 72 h, Ambroxol 10 μM alone): 55.2 ± 19.2% | Phagoburst (mfi) [%] ([1]; 96 h, Ambroxol 10 μM alone): 61.9 ± 22.1% | phagocytosis rate [1]: had not altered | Thiols, intracellular (CMFDA)[%] ([3]; 24 h, Ambroxol [10.0 μ/ml] alone): 67.4 ± 16.4% | Thiols, intracellular (CMFDA)[%] ([3]; 48 h, Ambroxol [10.0 μ/ml] alone): 61.8 ± 11.5% | Thiols, intracellular (CMFDA)[%] ([3]; 72 h, Ambroxol [10.0 μ/ml] alone): 61.6 ± 20.8% | Thiols, intracellular (CMFDA)[%] ([3]; 96 h, Ambroxol [10.0 μ/ml] alone): 67.1 ± 8.4% | cellular thiol expression ([3]; Example 3, monosubstances): only a marginal rise

COc1cc(C2Oc3cc([C@H]4Oc5cc(O)cc(O)c5C(=O)[C@@H]4O)ccc3OC2CO)ccc1O (stereo partly shown) [Silibinin, silibinin]
Phagoburst (mfi) [%] ([1]; 24 h, Silibinin 70.0 μg/ml alone): 55.1 ± 12.2 % | Phagoburst (mfi) [%] ([1]; 48 h, Silibinin 70.0 μg/ml alone): 57.6 ± 8.5% | Phagoburst (mfi) [%] ([1]; 72 h, Silibinin 70.0 μg/ml alone): 54.2 ± 13.8% | Phagoburst (mfi) [%] ([1]; 96 h, Silibinin 70.0 μg/ml alone): 59.9 ± 21.2% | Thiols, intracellular (CMFDA)[%] ([3]; 24 h, Silibinin 70 μg/ml alone): 56.1 ± 12.4% | Thiols, intracellular (CMFDA)[%] ([3]; 48 h, Silibinin 70 μg/ml alone): 59.0 ± 56.8% | Thiols, intracellular (CMFDA)[%] ([3]; 72 h, Silibinin 70 μg/ml alone): 44.7 ± 14.0% | Thiols, intracellular (CMFDA)[%] ([3]; 96 h, Silibinin 70 μg/ml alone): 49.4 ± 14.5%
